Reference: patent US7872014B2, “Anaplastic lymphoma kinase modulators and methods of use” (Exelixis, Inc., priority 2003, dated 2011)

biological target: T1, ALK (baculovirus expressed human ALK kinase domain F1098-K1410) (Homo sapiens, UniProt Q9UM73); assay: Luciferase-Coupled Chemiluminescent Kinase assay (LCCA), ALK biochemical activity; conditions: inhibition of ALK; mean values; 1 μM ATP, 4 μM poly-AEKY, 12 nM ALK, 2 hours ambient temperature
T1 construct: baculovirus expressed human ALK kinase domain F1098-K1410; made in house
Method in brief: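 Luciferase-coupled readout of ATP remaining after reaction of 12 nM ALK kinase domain with 1 μM ATP and 4 μM poly-AEKY, Tris-HCl pH 7.5 buffer with MgCl2 and MnCl2. Incubated 2 h at ambient temperature; inhibition derived from ATP consumption across serial compound dilutions.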

T1 sequence (Q9UM73 1098-1410): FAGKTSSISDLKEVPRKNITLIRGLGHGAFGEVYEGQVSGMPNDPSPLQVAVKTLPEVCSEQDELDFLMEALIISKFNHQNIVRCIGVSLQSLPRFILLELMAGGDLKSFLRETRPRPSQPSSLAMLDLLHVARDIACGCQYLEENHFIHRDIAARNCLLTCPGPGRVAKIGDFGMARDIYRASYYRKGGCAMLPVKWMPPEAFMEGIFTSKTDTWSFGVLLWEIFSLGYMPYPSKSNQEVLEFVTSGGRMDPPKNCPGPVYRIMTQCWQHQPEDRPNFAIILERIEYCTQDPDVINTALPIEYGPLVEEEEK

| SMILES | IC50 [nM] |
| --- | --- |
| COc1c(OCCN2CCN(C3CCCCC3)CC2)cc(F)c2c(-c3ccc(O)c(Cl)c3)nc3[nH]nc(C)c3c12 [Example 234, 2-chloro-4-[8-{[2-(4-cyclohexylpiperazin-1-yl)ethyl]oxy}-6-fluoro-1-methyl-9-(methyloxy)-3H-pyrazolo[3,4-c]isoquinolin-5-yl]phenol] | ≤ 99 |
| COc1c(OCCN2CCSCC2)cc(F)c2c(-c3ccc(O)c(Cl)c3)nc3[nH]nc(C)c3c12 [Example 240, 2-chloro-4-{6-fluoro-1-methyl-9-(methyloxy)-8-[(2-thiomorpholin-4-ylethyl)oxy]-3H-pyrazolo[3,4-c]isoquinolin-5-yl}phenol] | ≤ 99 |
| COc1c(OCCC2CCN(C)CC2)cc(F)c2c(-c3ccc(O)c(Cl)c3)nc3[nH]nc(C)c3c12 [Example 209, 2-chloro-4-(6-fluoro-1-methyl-9-(methyloxy)-8-{[2-(1-methylpiperidin-4-yl)ethyl]oxy}-3H-pyrazolo[3,4-c]isoquinolin-5-yl)phenol] | ≤ 99 |
| COc1cc2c(-c3ccc(O)c(C)c3)nc3[nH]nc(C)c3c2cc1OC [Example 37, 2-methyl-4-[1-methyl-7,8-bis(methyloxy)-3H-pyrazolo[3,4-c]isoquinolin-5-yl]phenol] | ≤ 99 |
| Cc1n[nH]c2nc(-c3ccc4cc[nH]c4c3)c3c(F)cc(O)c(F)c3c12 [Example 202, 6,9-difluoro-5-(1H-indol-6-yl)-1-methyl-3H-pyrazolo[3,4-c]isoquinolin-8-ol] | > 2000 |
| Cc1n[nH]c2nc(-c3ccc(O)c(Cl)c3)c3cc4c(cc3c12)OCCO4 [Example 140, 2-chloro-4-(1-methyl-8,9-dihydro-3H-[1,4]dioxino[2,3-g]pyrazolo[3,4-c]isoquinolin-5-yl)phenol] | ≤ 99 |

The next lines start with the values.

| IC50 [nM] | SMILES |
| --- | --- |
| ≤ 99 | COc1c(OCC2CCN(C)CC2)cc(F)c2c(-c3ccc(O)c(C)c3)nc3[nH]nc(C)c3c12 [Example 185, 4-(6-fluoro-1-methyl-9-(methyloxy)-8-{[(1-methylpiperidin-4-yl)methyl]oxy}-3H-pyrazolo[3,4-c]isoquinolin-5-yl)-2-methylphenol] |
| ≤ 99 | COc1c(OCCN2CCOCC2)cc(F)c2c(-c3ccc(O)c(Cl)c3)nc3[nH]nc(C)c3c12 [Example 206, 2-chloro-4-{6-fluoro-1-methyl-9-(methyloxy)-8-[(2-morpholin-4-ylethyl)oxy]-3H-pyrazolo[3,4-c]isoquinolin-5-yl}phenol] |
| ≤ 99 | CCCCN(CC)CCOc1cc(F)c2c(-c3ccc(O)c(Cl)c3)nc3[nH]nc(C)c3c2c1OC [Example 207, 4-[8-({2-[butyl(ethyl)amino]ethyl}oxy)-6-fluoro-1-methyl-9-(methyloxy)-3H-pyrazolo[3,4-c]isoquinolin-5-yl]-2-chlorophenol] |
| ≤ 99 | COc1cc2c(-c3ccc(O)cc3)nc3[nH]nc(C)c3c2c(OC)c1OC [Example 35, 4-[1-methyl-7,8,9-tris(methyloxy)-3H-pyrazolo[3,4-c]isoquinolin-5-yl]phenol] |
| ≤ 99 | COc1c(OCCN2CCCC2)cc(F)c2c(-c3ccc(Cl)c(O)c3)nc3[nH]nc(C)c3c12 [Example 220, 2-chloro-5-{6-fluoro-1-methyl-9-(methyloxy)-8-[(2-pyrrolidin-1-ylethyl)oxy]-3H-pyrazolo[3,4-c]isoquinolin-5-yl}phenol] |
| ≤ 99 | COc1c(OCCCN2CCOCC2)cc(F)c2c(-c3ccc(O)c(Cl)c3)nc3[nH]nc(C)c3c12 [Example 226, 2-chloro-4-{6-fluoro-1-methyl-9-(methyloxy)-8-[(3-morpholin-4-ylpropyl)oxy]-3H-pyrazolo[3,4-c]isoquinolin-5-yl}phenol] |
| 100 to 999 | COc1cc2c(-c3ccc(O)cc3)nc3[nH]nc(C(F)(F)F)c3c2cc1OC [Example 27, 4-[7,8-bis(methyloxy)-1-(trifluoromethyl)-3H-pyrazolo[3,4-c]isoquinolin-5-yl]phenol] |
| ≤ 99 | COCCOc1cc(F)c2c(-c3cc(Cl)c(O)cc3F)nc3[nH]nc(C)c3c2c1F [Example 144, 2-chloro-4-(6,9-difluoro-1-methyl-8-{[2-(methyloxy)ethyl]oxy}-3H-pyrazolo[3,4-c]isoquinolin-5-yl)-5-fluorophenol] |
